Columns and labels:
Assay in all cases: relative viability (nuclei count vs DMSO), 5 days (fraction); higher = more cells survive
SW 900 = tested on: SW 900
Procedure, shortened: (§1)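 Relative viability divides the nuclei count in treated wells by that in vehicle wells. Lung cancer cell lines were seeded in 1536-well plates, dosed by pin tool the next day, and fixed and stained after 5 days in one step with final 0.05% Triton X-100, 1% formaldehyde and 1 ug/ml Hoechst. Dosing was a single drug or a fixed anchor-drug dose plus five library-drug doses (not always all listed) in √10 steps, and values are medians of duplicate plates imaged at 4×.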

NCI-H596 = tested on: NCI-H596
Procedure, shortened: as §1

NCI-H661 = tested on: NCI-H661
Procedure, shortened: as §1

NCI-H647 = tested on: NCI-H647
Procedure, shortened: as §1

NCI-H520 = tested on: NCI-H520
Procedure, shortened: as §1

RERF-LC-KJ = tested on: RERF-LC-KJ
Procedure, shortened: as §1

HARA = tested on: HARA
Procedure, shortened: as §1

LOU-NH91 = tested on: LOU-NH91
Procedure, shortened: as §1

CAL-12T = tested on: CAL-12T
Procedure, shortened: as §1

NCI-H2085 = tested on: NCI-H2085
Procedure, shortened: as §1

A-427 = tested on: A-427
Procedure, shortened: as §1

NCI-H2126 = tested on: NCI-H2126
Procedure, shortened: as §1

NCI-H1666 = tested on: NCI-H1666
Procedure, shortened: as §1

NCI-H1651 = tested on: NCI-H1651
Procedure, shortened: as §1

NCI-H1734 = tested on: NCI-H1734
Procedure, shortened: as §1

NCI-H1975 = tested on: NCI-H1975
Procedure, shortened: as §1

NCI-H460 = tested on: NCI-H460
Procedure, shortened: as §1

NCI-H838 = tested on: NCI-H838
Procedure, shortened: as §1

NCI-H1944 = tested on: NCI-H1944
Procedure, shortened: as §1

LCLC-103H = tested on: LCLC-103H
Procedure, shortened: as §1

BEN = tested on: BEN
Procedure, shortened: as §1

ABC-1 = tested on: ABC-1
Procedure, shortened: as §1

NCI-H727 = tested on: NCI-H727
Procedure, shortened: as §1

`Cc1csc(=NC2CCCCC2)n1/N=C/c1ccc(O)c(O)c1O` [MIM1] + COc1cccc2cc(-c3nc([C@H]4CC[C@H](C(=O)O)CC4)n4ncnc(N)c34)[nH]c12 [OSI-027] (partner 0.5 µM) showed a relative viability (SW 900; first compound 0.2 µM) of 0.54, a relative viability (SW 900; first compound 0.6325 µM) of 0.789 and a relative viability (SW 900; first compound 2 µM) of 0.703. For the same compound, the relative viability (SW 900; first compound 6.325 µM) was 0.441, the relative viability (SW 900; first compound 20 µM) was 0.191 and the relative viability (NCI-H596; first compound 0.2 µM) was 0.622. It also gave a relative viability (NCI-H596; first compound 0.6325 µM) of 0.757, a relative viability (NCI-H596; first compound 2 µM) of 0.72 and a relative viability (NCI-H596; first compound 6.325 µM) of 0.628. For the same compound, the relative viability (NCI-H596; first compound 20 µM) was 0.659, the relative viability (NCI-H661; first compound 0.2 µM) was 0.756 and the relative viability (NCI-H661; first compound 0.6325 µM) was 0.684. It also gave a relative viability (NCI-H661; first compound 2 µM) of 0.636, a relative viability (NCI-H661; first compound 6.325 µM) of 0.534 and a relative viability (NCI-H661; first compound 20 µM) of 0.31. It also gave a relative viability (NCI-H647; first compound 0.2 µM) of 0.708, a relative viability (NCI-H647; first compound 0.6325 µM) of 0.658 and a relative viability (NCI-H647; first compound 6.325 µM) of 0.557. It also gave a relative viability (NCI-H647; first compound 20 µM) of 0.43, a relative viability (NCI-H520; first compound 0.2 µM) of 0.245 and a relative viability (NCI-H520; first compound 0.6325 µM) of 0.22. For the same compound, the relative viability (NCI-H520; first compound 2 µM) was 0.249, the relative viability (NCI-H520; first compound 6.325 µM) was 0.24 and the relative viability (NCI-H520; first compound 20 µM) was 0.25. The relative viability (RERF-LC-KJ; first compound 0.2 µM) was 0.555, the relative viability (RERF-LC-KJ; first compound 0.6325 µM) was 0.629 and the relative viability (RERF-LC-KJ; first compound 2 µM) was 0.403. It also gave a relative viability (RERF-LC-KJ; first compound 6.325 µM) of 0.313, a relative viability (RERF-LC-KJ; first compound 20 µM) of 0.195 and a relative viability (HARA; first compound 0.2 µM) of 0.503. For the same compound, the relative viability (HARA; first compound 2 µM) was 0.547, the relative viability (HARA; first compound 6.325 µM) was 0.166 and the relative viability (HARA; first compound 20 µM) was 0.0624. It also gave a relative viability (LOU-NH91; first compound 0.2 µM) of 0.721, a relative viability (LOU-NH91; first compound 0.6325 µM) of 0.692 and a relative viability (LOU-NH91; first compound 2 µM) of 0.64. The relative viability (LOU-NH91; first compound 6.325 µM) was 0.694, the relative viability (LOU-NH91; first compound 20 µM) was 0.635 and the relative viability (CAL-12T; first compound 0.2 µM) was 0.607. For the same compound, the relative viability (CAL-12T; first compound 0.6325 µM) was 0.579, the relative viability (CAL-12T; first compound 2 µM) was 0.57 and the relative viability (CAL-12T; first compound 6.325 µM) was 0.445. It also gave a relative viability (CAL-12T; first compound 20 µM) of 0.143, a relative viability (NCI-H2085; first compound 0.2 µM) of 0.676 and a relative viability (NCI-H2085; first compound 0.6325 µM) of 0.808. It also gave a relative viability (NCI-H2085; first compound 2 µM) of 0.712, a relative viability (NCI-H2085; first compound 6.325 µM) of 0.565 and a relative viability (NCI-H2085; first compound 20 µM) of 0.446. It also gave a relative viability (A-427; first compound 0.2 µM) of 0.432, a relative viability (A-427; first compound 2 µM) of 0.48 and a relative viability (A-427; first compound 6.325 µM) of 0.456. The relative viability (A-427; first compound 20 µM) was 0.191, the relative viability (NCI-H2126; first compound 0.2 µM) was 0.758 and the relative viability (NCI-H2126; first compound 0.6325 µM) was 0.672. For the same compound, the relative viability (NCI-H2126; first compound 2 µM) was 0.732, the relative viability (NCI-H2126; first compound 6.325 µM) was 0.657 and the relative viability (NCI-H2126; first compound 20 µM) was 0.466. The relative viability (NCI-H1666; first compound 0.2 µM) was 0.957, the relative viability (NCI-H1666; first compound 0.6325 µM) was 0.9 and the relative viability (NCI-H1666; first compound 2 µM) was 0.804. It also gave a relative viability (NCI-H1666; first compound 6.325 µM) of 0.639, a relative viability (NCI-H1666; first compound 20 µM) of 0.459 and a relative viability (NCI-H1651; first compound 0.2 µM) of 0.745. For the same compound, the relative viability (NCI-H1651; first compound 0.6325 µM) was 0.806, the relative viability (NCI-H1651; first compound 2 µM) was 0.63 and the relative viability (NCI-H1651; first compound 6.325 µM) was 0.611. It also gave a relative viability (NCI-H1651; first compound 20 µM) of 0.612, a relative viability (NCI-H1734; first compound 0.2 µM) of 0.666 and a relative viability (NCI-H1734; first compound 0.6325 µM) of 0.495. It also gave a relative viability (NCI-H1734; first compound 2 µM) of 0.525, a relative viability (NCI-H1734; first compound 6.325 µM) of 0.304 and a relative viability (NCI-H1734; first compound 20 µM) of 0.201. It also gave a relative viability (NCI-H1975; first compound 0.2 µM) of 0.704, a relative viability (NCI-H1975; first compound 0.6325 µM) of 0.734 and a relative viability (NCI-H1975; first compound 2 µM) of 0.584. It also gave a relative viability (NCI-H1975; first compound 6.325 µM) of 0.36, a relative viability (NCI-H1975; first compound 20 µM) of 0.336 and a relative viability (NCI-H460; first compound 0.2 µM) of 0.651. It also gave a relative viability (NCI-H460; first compound 0.6325 µM) of 0.66, a relative viability (NCI-H460; first compound 2 µM) of 0.42 and a relative viability (NCI-H460; first compound 6.325 µM) of 0.423. The relative viability (NCI-H460; first compound 20 µM) was 0.0316, the relative viability (NCI-H838; first compound 0.2 µM) was 0.469 and the relative viability (NCI-H838; first compound 0.6325 µM) was 0.428. For the same compound, the relative viability (NCI-H838; first compound 2 µM) was 0.397, the relative viability (NCI-H838; first compound 6.325 µM) was 0.373 and the relative viability (NCI-H838; first compound 20 µM) was 0.169. For the same compound, the relative viability (NCI-H1944; first compound 0.2 µM) was 0.441, the relative viability (NCI-H1944; first compound 0.6325 µM) was 0.44 and the relative viability (NCI-H1944; first compound 2 µM) was 0.334. It also gave a relative viability (NCI-H1944; first compound 6.325 µM) of 0.365, a relative viability (NCI-H1944; first compound 20 µM) of 0.285 and a relative viability (LCLC-103H; first compound 0.2 µM) of 0.467. It also gave a relative viability (LCLC-103H; first compound 0.6325 µM) of 0.422, a relative viability (LCLC-103H; first compound 2 µM) of 0.468 and a relative viability (LCLC-103H; first compound 6.325 µM) of 0.435. The relative viability (LCLC-103H; first compound 20 µM) was 0.304, the relative viability (BEN; first compound 0.2 µM) was 0.309 and the relative viability (BEN; first compound 0.6325 µM) was 0.315. It also gave a relative viability (BEN; first compound 2 µM) of 0.28, a relative viability (BEN; first compound 6.325 µM) of 0.318 and a relative viability (BEN; first compound 20 µM) of 0.298. It also gave a relative viability (ABC-1; first compound 0.2 µM) of 0.481, a relative viability (ABC-1; first compound 0.6325 µM) of 0.46 and a relative viability (ABC-1; first compound 2 µM) of 0.388. It also gave a relative viability (ABC-1; first compound 6.325 µM) of 0.236, a relative viability (ABC-1; first compound 20 µM) of 0.298 and a relative viability (NCI-H727; first compound 0.2 µM) of 0.619. It also gave a relative viability (NCI-H727; first compound 0.6325 µM) of 0.712, a relative viability (NCI-H727; first compound 2 µM) of 0.599 and a relative viability (NCI-H727; first compound 6.325 µM) of 0.552. The relative viability (NCI-H727; first compound 20 µM) was 0.338.

From the supplement of paper PMC10307832
